Experiment [1] deals with primary macrovascular (umbilical vein) endothelial cells (HUVEC). Put plainly: Boyden chamber migration assay of HUVEC in response to bFGF. It counts as cell-based, human. The following applies: 0.1, 1 or 10 μM; bFGF 50 ng/ml; 5 hours. Here is the method: Both assays were performed on endothelial cells.
Both assays were performed by the Boyden chamber separated in two compartments by polycarbonate filters with 12 μm pores (Nucleoprobe, Cabin John, Md.), coated with collagen IV (Collaborative Biomedical Products) for migration, or with collagen IV and Matrigel together for invasion, as described previously (Barillari et al., 1999b). […] After 5 hours (migration) or 6 hours (Invasion) of incubation, the non-migrated cells present on the top surface of the filters were mechanically removed, while the migrated cells on the bottom surface were fixed in methanol and stained with toluidine blue (Sigma Chemical Co., St. Louis, Mo.). The cells present in 5-10 microscopic fields of the filters, chosen at random, were counted as described previously (Barillari et al., 1999b).
The concentrations of HIV-PI used were the same as those present in plasma of treated patients (Deeks et al., 1997).

A further experiment has as its system smooth muscle cells. Put plainly: Invasion assay of smooth muscle cells in response to bFGF. It counts as cell-based, human. The text has this: Assays have been essentially performed as described in key to FIGS. 1 and 3. […] Data of duplicate experiments (mean) are shown.
In experiment [2] the test system is bFGF-induced angiogenic KS-like lesions. Put plainly: bFGF-induced angiogenic KS-like lesions in nude mice. It counts as in vivo. The following applies: for No. of mice with macroscopic vascular lesions/No. of inoculated mice / mice with macroscopic vascular lesions (%): bFGF 1 μg in matrigel, indinavir 1.4 mg/day or saquinavir 1 mg/day, intragastric gavage, 7 days; for Tissue staining (area % ± SD) CD31 / Tissue staining (area % ± SD) FVIII-RA: bFGF 1 μg, lesional area stained. Here is the method: The mice were then inoculated with bFGF (1 μg) or with its diluting buffer in the presence of matrigel (Kleiner et al., 1993; Ensoli et al., 1994a; Samaniego et al., 1998; Barillari et al., 1999a).
The mice were then sacrificed and the inoculation areas examined both macroscopically and microscopically for the presence of KS-like angioproliferative lesions (Kleiner et al., 1993; Ensoli et al., 1994a; Samaniego et al., 1998; Barillari et al., 1999a).
At the time of sacrifice, the inoculation sites were examined to check for the presence of macroscopic angioproliferative lesions and analyzed microscopically after haematoxilin & eosin (H&E) staining or frozen for histochemical analysis of endothelial the cell markers FVIII-RA and CD31. Here are listed the number (No.) of mice that developed lesions with respect to the number (No.) of mice inoculated, and the percentage (%) of mice that developed lesions. […] Angiogenesis was quantitated by determining the tissue area stained for FVIII-RA or CD31. Shown are the percentages [mean±standard deviations (SD)] of lesional area stained for FVIII-RA or CD31 that were quantitated as described below.
These doses correspond, respectively, to the whole dose, double or half the dose of HIV-PI used daily in patients infected with HIV (Deeks et al., 1997). […] The control animals were treated with the same volume of saline solution. On the third day the mice were inoculated subcutaneously at the level of the lower dorsal quadrant with 1 μg of recombinant bFGF (Roche, Mannheim, Germany) diluted in 0.2 ml of phosphate buffer (PBS)-0.1% bovine […] albumin (BSA) or with its re-suspending buffer, mixed with 0.2 ml of Matrigel (Collaborative Biomedical Products, Bedford, Mass.) prior to inoculation, as described previously (Ensoli et al., 1994a). Four days later the mice were sacrificed, the inoculation sites were examined to check for the presence of macroscopic KS-like angioproliferative lesions, and sections of tissue histologically examined after staining with H&E. For immunohistochemical analysis, frozen tissue sections were fixed with cold acetone and stained with rabbit anti-human FVIII-RA polyclonal antibodies (Ab) (Dako, Glostrup, Denmark; 1:2000 dilution) or anti-mouse CD31 rat monoclonal Ab (BD Biosciences; 1:1000 dilution). Digital images (200× magnification) were captured by a color CCD camera (Zeiss) and analyzed by acquiring 4-9 microscopic fields (about 0.15 mm^2 per field) corresponding to the whole histologic sections. Staining was quantitated by the KS300 (Zeiss) image analysis software and expressed as the percentage of positive area over the total tissue area.

The subject of another experiment is KS cells. Put plainly: KS cell adhesion to fibronectin. Type of experiment: cell-based, human.
Experiment [3] deals with hepato-carcinoma cells (SK-Hep-1). Put plainly: Cell growth assay of SK-Hep-1 cells. Type of experiment: cell-based, human. The following applies: 10 μM; 4 days. Here is the method: FIG. 16. […] Shown is the result of a representative cell growth assay performed on the hepato-carcinoma cells. Human hepato-carcinoma cells (SK-Hep-1; from ATCC) were plated in triplicate (8×10^4 cells/well) in 12-well plates. […] After 4 days of culture, the cells were counted by trypan blue dye staining, as previously described (Ensoli et al., 1990; Ensoli et al., 1994b): For all the in vitro studies HIV-PI as endotoxin-free pure powder (a kind gift of Merck Sharp & Dohme and Roche) were resuspended in distilled water. Assays were repeated at least three times.

Experiment [4] deals with T cell leukaemia (Jurkat) cells. Put plainly: Tumour lesions induced by Jurkat cells in nude mice. Type of experiment: in vivo. To be noted: 20×10^6 cells/site; daily treatment. Here is the method: (§1) The treatment with HIV-PI or saline solution continued until sacrifice. The size of the lesions present at the injection site was evaluated daily by caliper measurement. External lesion area was then calculated as the product of the two major lesion diameters. The mean size (cm^2) of the lesions present at the injection site is shown.
(§2) To determine whether HIV-PI could inhibit the growth of malignant solid and lymphoid tumours, nude mice were inoculated with hepato-carcinoma cells (SK-Hep-1), lung carcinoma cells (A549), breast adeno-carcinoma cells (MDA-MB-468), myelo-monocytic leukaemia cells (U937), and T lymhocytic leukaemia cells (Jurkat).

The subject of experiment [5] is myelo-monocytic leukaemia (U937) cells. Put plainly: Tumour lesions induced by U937 cells in nude mice. Type of experiment: in vivo. The following applies: 5×10^6 cells/site; daily treatment. Here is the method:
as §1, §2

As for `CC(C)(C)NC(=O)[C@@H]1C[C@@H]2CCCC[C@@H]2CN1C[C@@H](O)[C@H](Cc1ccccc1)NC(=O)[C@H](CC(N)=O)NC(=O)c1ccc2ccccc2n1` [Saquinavir, saquinavir], the “migration induced by bFGF” value in experiment [1] was “block”. The “invasion in response to bFGF” value in the experiment with smooth muscle cells is reported as “inhibit”. Also, in experiment [2], the “No. of mice with macroscopic vascular lesions/No. of inoculated mice” value was 7/28, the “mice with macroscopic vascular lesions (%)” value was 25%, the “Tissue staining (area % ± SD) CD31” value is on record as 0.83 ± 0.3% and the “Tissue staining (area % ± SD) FVIII-RA” value amounted to 1.13 ± 0.6%. Further, the “capability of the KS cells to adhere to a substrate of fibronectin” value in the experiment with KS cells is “do not inhibit”. The proliferation entry in experiment [3] is “do not interfere”. The “development of tumour lesions (lesion size)” value (“development of tumour lesions” for short) in experiment [4] is “inhibit”. In experiment [5], the “development of tumour lesions” value is listed as “inhibit”.
For `CC(C)(C)NC(=O)[C@@H]1CN(Cc2cccnc2)CCN1C[C@@H](O)C[C@@H](Cc1ccccc1)C(=O)N[C@H]1c2ccccc2C[C@H]1O` [Indinavir, indinavir], the “migration induced by bFGF” value in experiment [1] was “block”. Further, the “invasion in response to bFGF” value with smooth muscle cells was “inhibit”. For the same compound, in experiment [2], the “No. of mice with macroscopic vascular lesions/No. of inoculated mice” value was 8/28, the “mice with macroscopic vascular lesions (%)” value was 28%, the “Tissue staining (area % ± SD) CD31” value was 1.00 ± 0.6% and the “Tissue staining (area % ± SD) FVIII-RA” value was 1.32 ± 1.2%. In addition, in experiment [2] (in comparison with mice inoculated with bFGF and not treated), the “angiogenesis and infiltration of the cells, microscopic examination of the inoculation sites” value is on record as “marked reduction”. Besides, the “capability of the KS cells to adhere to a substrate of fibronectin” value in the experiment with KS cells is listed as “do not inhibit”. Moreover, the proliferation entry in experiment [3] is reported as “do not interfere”. The “development of tumour lesions” value in experiment [4] is recorded as “inhibit”. For the same compound, the “development of tumour lesions” value in experiment [5] is “inhibit”.

The record behind these values is patent US20060088545A1, “Use of inhibitors of the protease of the human immunodeficiency virus (hiv) to block cell migration and/or invasion, tissue infiltration and oedema for the therary of diseases associated therewith” (priority 2001, published 2006).
